Reference: patent US20210008118A1, “METHOD FOR ENHANCING MIGRATION OF STEM CELLS INTO CANCER CELLS” (GACHON UNIVERSITY OF INDUSTRY-ACADEMIC COOPERATION …, priority 2019, published 2021)

Tested on: mesenchymal stem cells (BMMSCs, ADMSCs) migrating into cancer cells (A549, H1975, PANC-1, U87MG)
Test: Transwell migration of stem cells treated with ion channel inhibitor DIDS or ion channel antibodies
Type: cell-based
Details: 500 μM DIDS or ion channel antibodies; all cancer cells used (A549, H1975, PANC-1, U87MG)
Procedure: In vitro mobility measurement of stem cells according to an embodiment of the present invention was performed using a transwell membrane bilayer plate having a pore size of 8 μm. Cancer cells for stimulating the stem cells were cultured in the layer under the membrane, and the stem cells were cultured in the upper chamber to allow the cells to penetrate downward. At this time, the mobility was measured through the number of stem cells infiltrated the membrane.
In order to investigate the effect of ion channel activity on the ability of stem cells to migrate into cancer cells, the present inventors performed an analysis similar to Example 1-1 using DIDS (4,4′-Diisothiocyano-2,2′-stilbenedisulfonic acid) which is an ion channel inhibitor and antibodies specifically binding to ion channels (SLC4A4, SLC4A7). Particularly, in the case of lung cancer cells, 5×10^4 of bone marrow-derived mesenchymal stem cells (BMMSCs) as a control group and lung cancer cells (A549 and H1975) as an experimental group were dispensed onto the lower well, respectively, and cultured at 37° C. for 24 hours. […] Subsequently, stem cells migrated into the lower well through the transwell membrane were counted trough a confocal fluorescence microscope in order to measure their mobility (FIGS. 3A to 4D).

## O=S(=O)(O)c1cc(N=C=S)ccc1C=Cc1ccc(N=C=S)cc1S(=O)(=O)O [DIDS, 4,4′-Diisothiocyano-2,2′-stilbenedisulfonic acid]
  ability of the mesenchymal stem cells to migrate into cancer cells: decreased significantly
